Test results from patent EP0498331B1, “N-(aryloxyalkyl)heteroaryl-8-azabicyclo(3.2.1)octanes, intermediates and a process for the preparation thereof and their use as medicaments” (HOECHST-ROUSSEL PHARMACEUTICALS INCORPORATED, priority 1991, dated 1992).
Where a name gives a salt, the structure may show the parent alone. Read-outs that look alike come from different tables or passages of the source.

What was measured:
CK-1 male mice = test: climbing mice assay (antagonism of apomorphine-induced climbing); format: in vivo; details: Mus musculus, ip, read-out: CLIMBING MOUSE ASSAY (ED₅₀ mg/kg, ip)
Protocol: The compounds of the present invention are useful for treating psychoses by virtue of their ability to elicit an antipsychotic response in animals. Antipsychotic activity is determined in the climbing mice assay by a method similar to those described by P. Protais, et al., Psychopharmacol., 50:1(1976) and B. Costall, Eur. J. Pharmacol., 50:39 (1978).
Subject CK-1 male mice (23-27 grams) are grouped-housed under standard laboratory conditions. The mice are individually placed in wire mesh stick cages (4" X 10") and are allowed one hour for adaption and exploration of the new environment. Then apomorphine is injected subcutaneously at 1.5 mg/kg, a dose causing climbing in all subjects for 30 minutes. Compounds to be tested for antipsychotic activity are injected intraperitoneally or given oral doses at various time intervals, e.g. 30 minutes, 60 minutes, etc. prior to the apomorphine challenge at a screening dose of 10-60 mg/kg.
For evaluation of climbing, 3 readings are taken at 10, 20 and 30 minutes after apomorphine administration according to the following scale:
Mice consistently climbing before the injection of apomorphine are discarded.
With fully-developed apomorphine climbing, the animals are hanging on to the cage walls, rather motionless, over longer periods of time. By contrast, climbs due to mere motor stimulation usually only last a few seconds.
The climbing scores are individually totaled (maximal score: 6 per mouse over 3 readings) and the total score of the control group (vehicle intraperitoneally-apomorphine subcutaneously) is set to 100%. ED₅₀ values with 95% confidence limits, calculated by a linear regression analysis, of representative compounds of the present invention as well as a standard antipsychotic agent are presented in Table 1.

[1] = biological target: T1, serotonin (5-hydroxytryptamine [5HT]) uptake (Rattus norvegicus, UniProt P31652); test: ³H-serotonin uptake in rat whole brain and hypothalamic synaptosomes; format: biochemical; details: inhibition of [³H]-5HT uptake, 50 nM ³H-5HT, rat whole brain minus cerebella or hypothalamus, 37°C for 5 minutes; log-probit analysis; read-out: 5-HT-IC₅₀
T1 construct: Either whole brain minus cerebella or hypothalmus is weighed and homogenized in 9 volumes of ice-cold 0.32 M sucrose; from tissue; host or cells: Male Wistar rat brain (whole brain minus cerebella, or hypothalamus), S1 supernatant / synaptosomes
T1 sequence (P31652 whole entry): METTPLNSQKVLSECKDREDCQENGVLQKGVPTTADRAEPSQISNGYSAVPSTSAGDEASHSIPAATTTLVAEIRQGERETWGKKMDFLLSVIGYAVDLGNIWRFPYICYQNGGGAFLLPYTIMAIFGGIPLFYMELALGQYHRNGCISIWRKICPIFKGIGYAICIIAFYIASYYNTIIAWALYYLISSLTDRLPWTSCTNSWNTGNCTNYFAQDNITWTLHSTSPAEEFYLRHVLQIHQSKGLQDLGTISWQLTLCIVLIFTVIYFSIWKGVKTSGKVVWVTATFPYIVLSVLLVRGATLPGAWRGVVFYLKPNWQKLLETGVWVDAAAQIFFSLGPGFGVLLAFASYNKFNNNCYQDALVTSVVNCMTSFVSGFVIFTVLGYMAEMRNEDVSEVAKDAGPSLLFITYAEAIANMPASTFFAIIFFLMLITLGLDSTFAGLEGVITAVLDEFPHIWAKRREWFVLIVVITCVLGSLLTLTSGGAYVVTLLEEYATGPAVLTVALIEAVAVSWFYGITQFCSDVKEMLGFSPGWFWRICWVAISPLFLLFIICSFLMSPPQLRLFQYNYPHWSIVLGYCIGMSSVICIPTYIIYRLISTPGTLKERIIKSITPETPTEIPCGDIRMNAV
Protocol: This activity is determined in an assay which measures ³H-serotonin uptake in rat whole brain and hypothalamic synaptosomes. The assay described below is used as a biochemical screen for potential antidepressants which block serotonin (5-hydroxytryptamine [5HT]) uptake.
1. Krebs-Henseleit Bicarbonate Buffer, pH 7.4 (KHBB): Prepare a 1 liter batch containing the following salts.
The batch is aerated for 60 minutes with 95% 0₂/5% CO₂, the pH is checked to insure it is at 7.4 ± 0.1. 2. Add 0.32 M sucrose: 21.9 g of sucrose, q.s. to 200 ml. 3. A 0.1mM stock solution of serotonin creatinine SO₄ is made up in 0.01 N HCl. This is used to dilute the specific activity of the radiolabeled 5HT. 4. 5-[1,2-³H(N)]-Hydroxytryptamine creatinine sulfate (serotonin) specific activity 20-30 Ci/mmol is used. The final desired concentration of ³H-5HT in the assay is 50 nM. The dilution factor is 0.8. The KHBB is made up to contain 62.5 nM of [³H]-5HT. Add to 100 ml of KHBB.
5. For most assays, a 1mM stock solution of the test compound is made up in a suitable solvent and serially diluted such that the final concentration in the assay ranges from 2 X 10⁻⁸ to 2 X 10⁻⁵M. Seven concentrations are used for each assay.
Male Wistar rats are decapitated and the brain rapidly removed. Either whole brain minus cerebella or hypothalmus is weighed and homogenized in 9 volumes of ice-cold 0.32 M sucrose using a Potter-Elvejhem homogenizer. The homogenate is centrifuged at 1000 g for 10 minutes at 0-4°C. The supernatant (S₁) is decanted and is used for uptake determination.
800 µl KHBB + [³H]-5HT 20 µl Vehicle or appropriate drug 200 µl Tissue suspension concentration
Tubes are incubated at 37°C under a 95%O₂/5% CO₂ atmosphere for 5 minutes. For each assay, 3 tubes are incubated with 20 µl of vehicle at 0°C in an ice bath. After incubation all tubes are immediately centrifuged at 4000 g for 10 minutes. The supernatant fluid is aspirated and the pellets dissolved by adding 1 ml of solubilizer (Triton X-100 and 50% ethanol, 1:4 v/v). The tubes are vigorously vortexted, decanted into scintillation vials, and counted in 10 ml of Liquiscint scintillation counting cocktail. Active uptake is the difference between cpm at 37°C and 0°C. The per cent inhibition at each drug concentration is the mean of three determinations. IC₅₀ values are derived from log-probit analysis.

| Structure (SMILES) | IC50 [1] | also measured |
| --- | --- | --- |
| CN1CCN(C2=Nc3cc(Cl)ccc3Nc3ccccc32)CC1 [Clozapine, reference compound] | – | ED50 (CK-1 male mice; apomorphine 1.5 mg/kg subcutaneously, climbing score vs control group set to 100%, linear regression analysis): 8.1 mg/kg |
| COc1cc(C(C)=O)ccc1OCCN1C2CCC1CC(c1noc3ccccc13)C2 (stereo not shown) [[4-[2-[3-[1,2-Benzisoxazol-3-yl]-8-azabicyclo[3.2.1]octan-8-yl]ethoxy]-3-methoxyphenyl]ethanone fumarate] | 10 nM | – |
| COc1cc(C(C)=O)ccc1OCCN1C2CCC1CC(c1noc3cc(F)ccc13)C2 (stereo not shown) [[4-[2-[3-[6-Fluoro-1,2-benzisoxazol-3-yl]-8-azabicyclo[3.2.1]octan-8-yl]ethoxy]-3-methoxyphenyl]ethanone fumarate] | – | ED50 (CK-1 male mice): 12.5 mg/kg |
| COc1cc(C(C)=O)ccc1OCCCN1C2CCC1CC(c1noc3cc(F)ccc13)C2 (stereo not shown) [[4-[3-[3-[6-Fluoro-1,2-benzisoxazol-3-yl]-8-azabicyclo[3.2.1]octan-8-yl]propoxy]-3-methoxyphenyl] ethanone monohydrochloride] | – | ED50 (CK-1 male mice): 5 mg/kg |
| COc1cc(C(C)=O)ccc1OCCCCN1C2CCC1CC(c1nsc3ccccc13)C2 (stereo not shown) [[4-[4-[3-[1,2-Benzisothiazol-3-yl]-8-azabicyclo[3.2.1]octan-8-yl]butoxy]-3-methoxyphenyl]ethanone monohydrochloride] | 27 nM | – |
| COc1cc(C(C)=O)ccc1OCCCCN1C2CCC1CC(c1n[nH]c3ccccc13)C2 (stereo not shown) [[4-[4-[3-[1H-Indazol-3-yl]-8-azabicyclo[3.2.1]octan-8-yl]butoxy]-3-methoxyphenyl]ethanone fumarate hemihydrate] | 70 nM | – |
| COc1cc(C(C)=O)ccc1OCCCCN1C2CCC1CC(c1n[nH]c3cc(F)ccc13)C2 (stereo not shown) [[4-[4-[3-[6-Fluoro-1H-indazol-3-yl]-8-azabicyclo[3.2.1]-octan-8-yl]butoxy]-3-methoxyphenyl]ethanone] | 20 nM | – |
